Experimental data taken from article PMC8694192, “Synthesis and biological evaluation of new derivatives of thieno-thiazole and dihydrothiazolo-thiazole scaffolds integrated with a pyrazoline nucleus as anticancer and multi-targeting kinase inhibitors” (RSC Advances, 2021).
≈ marks a conversion by molar mass, not a printed value. Where two headings read alike, the source gives them in different places.

Legend:
[1] = tested on: A. fumigatus RCMB 02568; assay: Agar well diffusion, inhibition zone; assay type: cell-based; conditions: Aspergillus fumigatus
[2] = tested on: C. albicans ATCC 10231; assay: Agar well diffusion, inhibition zone; assay type: cell-based; conditions: Candida albicans
[3] = tested on: A. fumigatus RCMB 02568; assay: MIC, two-fold serial dilution; conditions: for MIC: Aspergillus fumigatus, RCMB02568, read-out: MIC A. fumigatus RCMB 02568
[4] = tested on: C. albicans ATCC 10231; assay: MIC, two-fold serial dilution; conditions: for MIC: Candida albicans, ATCC10231, read-out: MIC C. albicans ATCC 10231
[5] = tested on: S. aureus 25923; assay: Agar well diffusion, inhibition zone; assay type: cell-based
[6] = tested on: E. faecalis; assay: Agar well diffusion, inhibition zone; assay type: cell-based; conditions: Enterococcus faecalis, read-out: Mean diameter of inhibition zone (mean ± SEM) E. faecalis
[7] = tested on: S. pneumoniae 010010; assay: Agar well diffusion, inhibition zone; assay type: cell-based
[8] = tested on: E. coli RCMB 010052; assay: Agar well diffusion, inhibition zone; assay type: cell-based; conditions: Escherichia coli
[9] = tested on: S. typhi ATCC 14028; assay: Agar well diffusion, inhibition zone; assay type: cell-based; conditions: Salmonella enterica, read-out: Mean diameter of inhibition zone (mean ± SEM) S. typhi ATCC 14028
[10] = tested on: P. aeruginosa; assay: Agar well diffusion, inhibition zone; assay type: cell-based; conditions: Pseudomonas aeruginosa, read-out: Mean diameter of inhibition zone (mean ± SEM) P. aeruginosa
[11] = tested on: S. typhi ATCC 14028; assay: MIC, two-fold serial dilution; assay type: cell-based; conditions: Salmonella enterica, read-out: MIC S. typhi ATCC 14028
[12] = tested on: S. aureus 25923; assay: MIC, two-fold serial dilution; conditions: Staphylococcus aureus, 25923, read-out: MIC S. aureus 25923
[13] = tested on: E. faecalis; assay: MIC, two-fold serial dilution; conditions: Enterococcus faecalis, read-out: MIC E. faecalis
[14] = tested on: S. pneumoniae 010010; assay: MIC, two-fold serial dilution; conditions: for MIC: Streptococcus pneumoniae, 010010, read-out: MIC S. pneumoniae 010010
[15] = tested on: E. coli RCMB 010052; assay: MIC, two-fold serial dilution; conditions: Escherichia coli, RCMB010052, read-out: MIC E. coli RCMB 010052
[16] = tested on: P. aeruginosa; assay: MIC, two-fold serial dilution; conditions: for MIC: Pseudomonas aeruginosa, read-out: MIC P. aeruginosa
[17] = tested on: MCF-7 cells; assay: In vitro cytotoxicity, MTT assay, MCF-7; conditions: Homo sapiens, MCF7, read-out: IC50 MCF-7
[18] = tested on: HepG-2 cells; assay: In vitro cytotoxicity, MTT assay, HepG-2; conditions: Homo sapiens, HepG2, read-out: IC50 HepG-2
[19] = Staphylococcus aureus, 25923, read-out: Mean diameter of inhibition zone (mean ± SEM) S. aureus 25923
[20] = Streptococcus pneumoniae, 010010, read-out: Mean diameter of inhibition zone (mean ± SEM) S. pneumoniae 010010
[21] = RCMB010052, read-out: Mean diameter of inhibition zone (mean ± SEM) E. coli RCMB 010052
[22] = RCMB02568, read-out: Mean diameter of inhibition zone (mean ± SEM) A. fumigatus RCMB 02568
[23] = ATCC10231, read-out: Mean diameter of inhibition zone (mean ± SEM) C. albicans ATCC 10231

SMILES	MIC [3] [µM]	MIC [4] [µM]	zone of inhibition at 500 µg/mL [5, 19] [mm]	zone of inhibition at 500 µg/mL [6] [mm]	zone of inhibition at 500 µg/mL [7, 20] [mm]	zone of inhibition at 500 µg/mL [8, 21] [mm]	zone of inhibition at 500 µg/mL [9] [mm]	zone of inhibition at 500 µg/mL [10] [mm]	zone of inhibition at 500 µg/mL [1, 22] [mm]	zone of inhibition at 500 µg/mL [2, 23] [mm]	MIC [11] [µM]	melting point [°C]	MIC [12] [µM]	MIC [13] [µM]	MIC [14] [µM]	MIC [15] [µM]	MIC [16] [µM]	IC50 [17] [µM]	IC50 [18] [µM]	also measured
C[C@@H]1[C@H](O)[C@@H](C)/C=C/C=C/C=C/C=C/C=C/C=C/C=C/[C@H](O[C@@H]2O[C@H](C)[C@@H](O)[C@H](N)[C@@H]2O)C[C@@H]2O[C@](O)(C[C@@H](O)C[C@@H](O)[C@H](O)CC[C@@H](O)C[C@@H](O)CC(=O)O[C@H]1C)C[C@H](O)[C@H]2C(=O)O [Amphotericin B, reference compound]	39.1 (≈ 36.2 µg/mL)	67.8 (≈ 62.7 µg/mL)	–	–	–	–	–	–	–	–	–	–	–	–	–	–	–	–	–	zone of inhibition at 500 µg/mL ([1]; RCMB02568, well diffusion agar, 0.5 mg/mL, read-out: Mean diameter of inhibition zone (mean ± SEM) A. fumigatus RCMB 02568): 22 ± 0.72 mm; zone of inhibition at 500 µg/mL ([2]; ATCC10231, well diffusion agar, 0.5 mg/mL, read-out: Mean diameter of inhibition zone (mean ± SEM) C. albicans ATCC 10231): 20 ± 0.78 mm
Cc1c(Nc2nc3c(C#N)c(N)sc3s2)c(=O)n(-c2ccccc2)n1C [Compound 3a, 5-Amino-2-((1,5-dimethyl-3-oxo-2-phenyl-2,3-dihydro-1H-pyrazol-4-yl)amino)thieno [3,2-d]thiazole-6-carbonitrile]	120 (≈ 45.9 µg/mL)	186 (≈ 71.2 µg/mL)	28 ± 0.15	13 ± 0.76	21 ± 0.69	25 ± 0.15	17 ± 0.95	22 ± 0.44	18 ± 0.25	12 ± 0.51	125 (≈ 47.9 µg/mL)	> 300	16.9 (≈ 6.44 µg/mL)	185 (≈ 70.8 µg/mL)	58.9 (≈ 22.5 µg/mL)	19.4 (≈ 7.4 µg/mL)	40.5 (≈ 15.5 µg/mL)	27.58 ± 0.01	25.72 ± 0.03	fold more potency than streptomycin, S. pneumoniae ([14]; from MIC): 1.1 folds; fold more potency than streptomycin, P. aeruginosa ([16]; from MIC): 1.6 folds; MIC A. fumigatus RCMB 02568 ([3]; two-fold serial dilution): completely lost; MIC C. albicans ATCC 10231 ([4]; two-fold serial dilution): completely lost
CCOC(=O)c1c(N)sc2sc(Nc3c(C)n(C)n(-c4ccccc4)c3=O)nc12 [Compound 3b, Ethyl 5-amino-2-((1,5-dimethyl-3-oxo-2-phenyl-2,3-dihydro-1H-pyrazol-4-yl)amino) thieno[3,2-d]thiazole-6-carboxylate]	62.1 (≈ 26.7 µg/mL)	189 (≈ 81.2 µg/mL)	19 ± 0.68	20 ± 0.24	14 ± 0.84	15 ± 0.71	23 ± 0.79	17 ± 0.41	21 ± 0.22	11 ± 0.7	45.6 (≈ 19.6 µg/mL)	285 to 287	79 (≈ 33.9 µg/mL)	67.4 (≈ 29 µg/mL)	179 (≈ 76.7 µg/mL)	119 (≈ 51.1 µg/mL)	125 (≈ 53.6 µg/mL)	36.77 ± 0.02	39.02 ± 0.02	–
Cc1c(Nc2nc3c(s2)sc(=S)n3-c2ccccc2)c(=O)n(-c2ccccc2)n1C [Compound 5a, 1,5-Dimethyl-2-phenyl-4-((4-phenyl-5-thioxo-4,5-dihydrothiazolo[4,5-d]thiazol-2-yl)amino)-1H-pyrazol-3(2H)-one]	197 (≈ 89.2 µg/mL)	–	21.2 ± 0.25	13 ± 0.43	–	–	23 ± 0.05	–	9 ± 0.53	–	44.7 (≈ 20.2 µg/mL)	201 to 203	63.6 (≈ 28.7 µg/mL)	183 (≈ 82.8 µg/mL)	–	–	–	73.8 ± 0.04	65.19 ± 0.02	–
CCn1c(=S)sc2sc(Nc3c(C)n(C)n(-c4ccccc4)c3=O)nc21 [Compound 5b, 4-((4-Ethyl-5-thioxo-4,5-dihydrothiazolo[4,5-d]thiazol-2-yl)amino)-1,5-dimethyl-2-phenyl-1H-pyrazol-3(2H)-one]	–	185 (≈ 74.7 µg/mL)	16 ± 0.88	27 ± 0.41	28 ± 0.12	10 ± 0.42	–	18 ± 0.95	–	12 ± 0.07	–	183 to 185	135 (≈ 54.6 µg/mL)	15.2 (≈ 6.13 µg/mL)	15.9 (≈ 6.4 µg/mL)	193 (≈ 78 µg/mL)	122 (≈ 49.1 µg/mL)	43.94 ± 0.02	48.04 ± 0.03	–
Cc1c(Nc2nc3c(s2)sc(=S)n3-c2ccc(Cl)cc2)c(=O)n(-c2ccccc2)n1C [Compound 5d, 4-((4-(4-Chlorophenyl)-5-thioxo-4,5-dihydrothiazolo[4,5-d]thiazol-2-yl)amino)-1,5-dimethyl-2-phenyl-1H-pyrazol-3(2H)-one]	–	–	25 ± 0.13	–	–	15 ± 0.04	–	13 ± 0.11	–	–	–	211 to 213	18.9 (≈ 9.17 µg/mL)	–	–	118 (≈ 57.4 µg/mL)	180 (≈ 87.6 µg/mL)	88.56 ± 0.01	81.5 ± 0.03	–
COc1cccc2c1C(=O)c1c(O)c3c(c(O)c1C2=O)C[C@@](O)(C(=O)CO)C[C@@H]3O[C@H]1C[C@H](N)[C@H](O)[C@H](C)O1 [Doxorubicin, doxorubicin, reference compound]	–	–	–	–	–	–	–	–	–	–	–	–	–	–	–	–	–	4.62 ± 0.01	5.66 ± 0.01	–
[H]/N=C(/N)N[C@H]1[C@H](O)[C@@H](O)[C@H](O[C@@H]2O[C@@H](C)[C@](O)(C=O)[C@H]2O[C@@H]2O[C@@H](CO)[C@H](O)[C@@H](O)[C@@H]2NC)[C@@H](N/C(N)=N\[H])[C@@H]1O [Streptomycin, reference compound]	–	–	–	–	–	–	23 ± 0.92	–	–	–	47.1 (≈ 27.4 µg/mL)	–	16.8 (≈ 9.74 µg/mL)	19.5 (≈ 11.3 µg/mL)	65.3 (≈ 38 µg/mL)	9.18 (≈ 5.34 µg/mL)	68.2 (≈ 39.7 µg/mL)	–	–	zone of inhibition at 500 µg/mL ([5]; Staphylococcus aureus, 25923, well diffusion agar, 0.5 mg/mL, read-out: Mean diameter of inhibition zone (mean ± SEM) S. aureus 25923): 26 ± 0.45 mm; zone of inhibition at 500 µg/mL ([6]; well diffusion agar, 0.5 mg/mL): 25 ± 0.38 mm; zone of inhibition at 500 µg/mL ([7]; Streptococcus pneumoniae, 010010, well diffusion agar, 0.5 mg/mL, read-out: Mean diameter of inhibition zone (mean ± SEM) S. pneumoniae 010010): 22 ± 0.81 mm; zone of inhibition at 500 µg/mL ([8]; RCMB010052, well diffusion agar, 0.5 mg/mL, read-out: Mean diameter of inhibition zone (mean ± SEM) E. coli RCMB 010052): 27 ± 0.56 mm; zone of inhibition at 500 µg/mL ([10]; well diffusion agar, 0.5 mg/mL): 20 ± 0.53 mm
